Test results as given in patent publication US20220177471A1, “N-1 BRANCHED ALKYL SUBSTITUTED IMIDAZO[4,5-C]QUINOLINE COMPOUNDS, COMPOSITIONS, AND METHODS” (3M INNOVATIVE PROPERTIES COMPANY, priority 2019, published 2022).

Legend:
human TLR7 = target: T1, human TLR7 (Homo sapiens, UniProt Q9NYK1); assay: TLR activation, HEK-BLUE-hTLR7 SEAP reporter cells; format: cell-based; conditions: 16-20 hours, lowest concentration giving SEAP response at least 2x vehicle control, tested 0.01-30 micromolar
T1 construct: host or cells: HEK293 (HEK-BLUE-hTLR7)
T1 sequence (Q9NYK1 27-1049): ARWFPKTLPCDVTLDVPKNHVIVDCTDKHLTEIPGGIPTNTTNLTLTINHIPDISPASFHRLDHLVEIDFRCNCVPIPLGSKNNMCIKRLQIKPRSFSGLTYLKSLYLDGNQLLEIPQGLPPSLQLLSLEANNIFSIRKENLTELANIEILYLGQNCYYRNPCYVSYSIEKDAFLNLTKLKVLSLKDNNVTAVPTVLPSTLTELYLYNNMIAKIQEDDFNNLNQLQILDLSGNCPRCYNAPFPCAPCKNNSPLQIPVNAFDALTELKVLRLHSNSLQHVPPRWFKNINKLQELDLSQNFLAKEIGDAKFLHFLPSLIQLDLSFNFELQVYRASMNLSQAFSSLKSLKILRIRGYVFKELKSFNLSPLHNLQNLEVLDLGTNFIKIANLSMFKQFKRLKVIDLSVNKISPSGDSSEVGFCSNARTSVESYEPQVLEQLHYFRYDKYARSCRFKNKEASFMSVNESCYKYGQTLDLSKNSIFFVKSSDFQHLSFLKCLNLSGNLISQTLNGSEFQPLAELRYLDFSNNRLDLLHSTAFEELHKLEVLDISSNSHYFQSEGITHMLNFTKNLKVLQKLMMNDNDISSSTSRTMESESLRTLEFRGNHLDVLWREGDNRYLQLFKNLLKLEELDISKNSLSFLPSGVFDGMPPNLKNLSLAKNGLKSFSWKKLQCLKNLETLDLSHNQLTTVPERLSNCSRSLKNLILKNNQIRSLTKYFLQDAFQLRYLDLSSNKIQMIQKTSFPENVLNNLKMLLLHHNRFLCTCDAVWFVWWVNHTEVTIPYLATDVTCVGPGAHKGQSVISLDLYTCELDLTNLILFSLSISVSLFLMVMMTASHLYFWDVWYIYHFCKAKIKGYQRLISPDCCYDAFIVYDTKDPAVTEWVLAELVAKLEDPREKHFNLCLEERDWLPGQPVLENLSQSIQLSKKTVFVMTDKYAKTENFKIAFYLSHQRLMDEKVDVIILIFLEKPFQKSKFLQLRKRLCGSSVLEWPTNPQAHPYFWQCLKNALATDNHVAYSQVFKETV
Description: (§1) HEK-BLUE-hTLR7 or hTLR8 reporter cells were obtained from InvivoGen, San Diego, Calif. According to the manufacturer's description, these reporter cells were prepared by co-transfection of HEK293 cells with an inducible secreted embryonic alkaline phosphatase (SEAP) reporter gene and either the human TLR7 or TLR8 gene. The SEAP reporter gene was placed under the control of an IFN-β minimal promoter fused to five NF-κB and AP-1-binding sites. In the presence of a TLR ligand, activation of NF-κB and AP-1 occurs, resulting in a corresponding increase in SEAP levels.
(§2) In the assay, the HEK cells were grown and maintained using standard cell culture techniques in a growth medium that contained Dulbecco's Modified Eagle Medium (ThermoFisher Scientific Incorporated, Waltham, Mass.) supplemented with 1% penicillin/streptomycin and 10% heat-inactivated Gibco fetal bovine serum (ThermoFisher Scientific). Each compound was solubilized in DMSO to create a 3 mM stock solution. The stock solution was then further diluted with the growth medium to prepare serial dilutions. Each test compound was tested at a concentration of 30, 10, 3.3, 1.1, 0.37, 0.12, 0.04, and 0.01 micromolar using a 96-well format with 5×10^4 cells and 200 microliters of growth medium per well.
(§3) For each compound, hTLR7, hTLR8, and their respective null control HEK cells were screened. DMSO serially diluted into the growth medium served as the vehicle control. Cell culture supernatants containing the SEAP reporter were collected after an incubation period of 16-20 hours in a cell culture incubator (37° C. and 5% CO2), and either analyzed immediately or stored at −80° C. SEAP levels were measured using the colorimetric enzyme assay (QUANTI-BLUE (InvivoGen) according to manufacturer's instructions.
(§4) Specifically, the minimum effective concentration of each compound (micromolar) was determined as the lowest concentration of the compound that produced a SEAP expression response at least 2× greater than that observed with the vehicle control wells.

human TLR8 = target: T2, human TLR8 (Homo sapiens, UniProt Q9NR97); assay: TLR activation, HEK-BLUE-hTLR8 SEAP reporter cells; format: cell-based; conditions: 16-20 hours, lowest concentration giving SEAP response at least 2x vehicle control, tested 0.01-30 micromolar
T2 construct: host or cells: HEK293 (HEK-BLUE-hTLR8)
T2 sequence (Q9NR97 27-1041): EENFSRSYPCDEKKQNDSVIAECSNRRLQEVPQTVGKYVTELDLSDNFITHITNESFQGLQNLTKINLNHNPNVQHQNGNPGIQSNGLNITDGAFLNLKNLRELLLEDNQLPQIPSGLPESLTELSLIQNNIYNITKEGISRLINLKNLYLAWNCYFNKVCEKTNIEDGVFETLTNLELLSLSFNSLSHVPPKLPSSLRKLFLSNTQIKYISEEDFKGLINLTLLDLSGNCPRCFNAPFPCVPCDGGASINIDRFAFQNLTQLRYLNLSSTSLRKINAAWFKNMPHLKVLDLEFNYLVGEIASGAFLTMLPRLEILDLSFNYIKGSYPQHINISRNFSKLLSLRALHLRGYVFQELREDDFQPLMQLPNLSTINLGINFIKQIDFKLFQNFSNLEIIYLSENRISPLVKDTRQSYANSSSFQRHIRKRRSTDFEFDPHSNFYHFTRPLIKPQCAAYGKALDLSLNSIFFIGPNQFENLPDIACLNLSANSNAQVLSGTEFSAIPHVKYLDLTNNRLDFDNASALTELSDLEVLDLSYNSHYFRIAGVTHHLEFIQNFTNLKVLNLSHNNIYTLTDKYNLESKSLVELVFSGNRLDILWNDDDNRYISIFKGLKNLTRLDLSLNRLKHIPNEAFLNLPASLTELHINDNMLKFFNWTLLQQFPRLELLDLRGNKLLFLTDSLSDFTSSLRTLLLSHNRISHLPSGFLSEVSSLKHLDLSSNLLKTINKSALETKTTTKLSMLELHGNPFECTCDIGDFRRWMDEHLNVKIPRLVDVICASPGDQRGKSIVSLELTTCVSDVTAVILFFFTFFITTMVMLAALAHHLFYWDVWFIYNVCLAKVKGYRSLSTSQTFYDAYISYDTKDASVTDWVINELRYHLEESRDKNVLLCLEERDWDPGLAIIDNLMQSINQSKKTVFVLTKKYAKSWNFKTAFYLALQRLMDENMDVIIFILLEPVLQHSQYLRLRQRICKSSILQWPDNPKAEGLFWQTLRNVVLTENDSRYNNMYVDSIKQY
Description: as §1, §2, §3, §4

SMILES	MEC to Produce TLR Activation: TLR 7 (human TLR7) [µM]	MEC to Produce TLR Activation: TLR 8 (human TLR8) [µM]
CC(C)Cn1cnc2c(N)nc3ccccc3c21 [Comparative Example 1, 1-isobutylimidazo[4,5-c]quinolin-4-amine, reference compound]	10	>30
CC(C)(O)Cn1cnc2c(N)nc3ccccc3c21 [Comparative Example 2, 1-(4-aminoimidazo[4,5-c]quinolin-1-yl)-2-methyl-propan-2-ol, reference compound]	10	>30
CC(C)[C@@H](C)n1cnc2c(N)nc3ccccc3c21 [Example 1, 1-[(1R)-1,2-dimethylpropyl]imidazo[4,5-c]quinolin-4-amine]	1.1	>30
CC(C)[C@H](C)n1cnc2c(N)nc3ccccc3c21 [Example 2, 1-[(1S)-1,2-dimethylpropyl]imidazo[4,5-c]quinolin-4-amine]	>30	>30
C[C@@H](n1cnc2c(N)nc3ccccc3c21)C(C)(C)C [Example 3, 1-[(1R)-1,2,2-trimethylpropyl]imidazo[4,5-c]quinolin-4-amine]	1.11	>30
C[C@H](n1cnc2c(N)nc3ccccc3c21)C(C)(C)C [Example 4, 1-[(1S)-1,2,2-trimethylpropyl]imidazo[4,5-c]quinolin-4-amine]	>30	>30
C[C@H](C1CCCCC1)n1cnc2c(N)nc3ccccc3c21 [Example 5, 1-[(1R)-1-cyclohexylethyl]imidazo[4,5-c]quinolin-4-amine]	1.11	>30
C[C@@H](C1CCCCC1)n1cnc2c(N)nc3ccccc3c21 [Example 6, 1-[(1S)-1-cyclohexylethyl]imidazo[4,5-c]quinolin-4-amine]	>30	>30
CCCC[C@H](C(C)C)n1cnc2c(N)nc3ccccc3c21 [Example 7, 1-[(1R)-1-isopropylpentyl]imidazo[4,5-c]quinolin-4-amine]	0.04	>30
CCCC[C@@H](n1cnc2c(N)nc3ccccc3c21)C(C)(C)C [Example 8, 1-[(1R)-1-tert-butylpentyl]imidazo[4,5-c]quinolin-4-amine]	≤0.01	>30
C[C@@H](n1cnc2c(N)nc3ccccc3c21)C(C)(C)O [Example 9, (3R)-3-(4-aminoimidazo[4,5-c]quinolin-1-yl)-2-methyl-butan-2-ol]	3.3	>30

More lines, now with the values ahead:

MEC to Produce TLR Activation: TLR 7 (human TLR7) [µM]	MEC to Produce TLR Activation: TLR 8 (human TLR8) [µM]	SMILES
>30	>30	C[C@H](n1cnc2c(N)nc3ccccc3c21)C(C)(C)O [Example 10, (3S)-3-(4-aminoimidazo[4,5-c]quinolin-1-yl)-2-methyl-butan-2-ol]
1.1	>30	CC[C@@H](n1cnc2c(N)nc3ccccc3c21)C(C)(C)O [Example 11, (3R)-3-(4-aminoimidazo[4,5-c]quinolin-1-yl)-2-methyl-pentan-2-ol]
>30	>30	CC[C@H](n1cnc2c(N)nc3ccccc3c21)C(C)(C)O [Example 12, (3S)-3-(4-aminoimidazo[4,5-c]quinolin-1-yl)-2-methyl-pentan-2-ol]
0.04	10	CCC[C@@H](n1cnc2c(N)nc3ccccc3c21)C(C)(C)O [Example 13, (3R)-3-(4-aminoimidazo[4,5-c]quinolin-1-yl)-2-methyl-hexan-2-ol]
>30	>30	CCC[C@H](n1cnc2c(N)nc3ccccc3c21)C(C)(C)O [Example 14, (3S)-3-(4-aminoimidazo[4,5-c]quinolin-1-yl)-2-methyl-hexan-2-ol]
0.01	10	CCCC[C@@H](n1cnc2c(N)nc3ccccc3c21)C(C)(C)O [Example 15, (3R)-3-(4-aminoimidazo[4,5-c]quinolin-1-yl)-2-methyl-heptan-2-ol]
>30	>30	CCCC[C@H](n1cnc2c(N)nc3ccccc3c21)C(C)(C)O [Example 16, (3S)-3-(4-aminoimidazo[4,5-c]quinolin-1-yl)-2-methyl-heptan-2-ol]
1.1	>30	CC(C)C[C@@H](n1cnc2c(N)nc3ccccc3c21)C(C)(C)O [Example 17, (3R)-3-(4-aminoimidazo[4,5-c]quinolin-1-yl)-2,5-dimethyl-hexan-2-ol]
>30	>30	CC(C)C[C@H](n1cnc2c(N)nc3ccccc3c21)C(C)(C)O [Example 18, (3S)-3-(4-aminoimidazo[4,5-c]quinolin-1-yl)-2,5-dimethyl-hexan-2-ol]
